The subject of experiment [1] is Ba/F3 (EGFR^L858R/T790M/C797S) cells. Nature of the experiment: Assay of activity on Ba/F3 (EGFR^L858R/T790M/C797S) cells (CTG, 72 h). It counts as cell-based. How it is done:
(§1) 30 nL of the compound dilution was added to a 384-well plate by Echo (Labcyte, Echo550). […] 2. Data Analysis
(§2) The percent inhibition rate (% inhibition) was calculated by the following formula
(§3) [formula] • LUMcmpd: Luminescence value of assay compound. • LUMpositive: Average LUM value of positive drug (Brigatinib) with a concentration of 10 μM. • LUMvehicle: Average LUM value of negative control group without drug treatment.
(§4) The nonlinear regression curve (dose response-variable slope) between the value of inhibition rate (%) and the logarithm of compound concentration was fitted with graphpad prism 8.0, the effect dose curve of compound was drawn, and the IC50 value was calculated. Y=Bottom+(Top−Bottom)/(1+10^((LogIC50−X)*HillSlope)) • X-axis: logarithm of compound concentration; Y axis: inhibition rate (% inhibition). 3.

For experiment [2], the system named is Ba/F3 (EGFR^Del19/T790M/C797S) cells. Briefly: Assay of activity on Ba/F3 (EGFR^Del19/T790M/C797S) cells (CTG, 72 h). It counts as cell-based. How it is done: as §1, §2, §3, §4
In experiment [3] the target is T1, EGFR^L858R/T790M/C797S (Homo sapiens (Human), UniProt P00533, C797S/L858R/T790M). Briefly: Assay of inhibitory activity on EGFR (HTRF kinase assay). It counts as biochemical. The following applies: mutant EGFR kinase. How it is done: Formula of inhibition rate (%): […]
The nonlinear regression curve (dose response-variable slope) between the value of inhibition rate (%) and the logarithm of compound concentration was fitted with graphpad prism 8.0, the effect dose curve of compound was drawn, and IC50 value was calculated.

Experiment [4] concerns the target T1, EGFR^L858R/T790M/C797S. Nature of the experiment: Assay of activity of compounds for inducing EGFR^L858R/T790M/C797S protein degradation. It counts as cell-based. The following applies: Ba/F3 (EGFR^L858R/T790M/C797S) cells. Here is the method:
In order to further explain the reason why the compounds of the present disclosure have inhibitory activity on Ba/F3 (EGFR^L858R/T790M/C797S) cells, representative compounds D3 was selected to study the mechanism of action of the compounds, and observe their effects on EGFR^L858R/T790M/C797S protein levels.
• Ba/F3 (EGFR^L858R/T790M/C797S) cells were cultured according to the culture conditions recommended by ATCC, and analyzed by index. • Complete medium: 1640 medium, 10% FBS, 1× glutamine, 1× penicillin-streptomycin. • Culture conditions: incubated at 37° C., 95% air, 5% CO2 incubator. (2) Compound Stock Solution:
10 mM stock solution in DMSO, stored at −20° C.
• The cells in the cell culture bottle were collected, and the cells with viability of >90% can be used in the assay. Cells were seeded in a 96-well plate with 40 μL cells, 1*10^5 cells/well. […] (6) Detection: • 1) 1 μg/mL of EGF activated cells were treated for 10 min; • 2) After the compound treatment, lysis buffer was added to lyse cells; 10 μL of cell lysate was transferred to a 384-well plate; in addition, 5 μL of acceptor mix was added to the 384-well plate, and shaken on a shaker for 1-2 min; • 3) 5 μL of donor mix was added to each well; the 384-well plate was sealed, shaken on a shaker for 1-2 min, left in the dark at room temperature overnight, and read with an enzyme labeling instrument. […]

Like-named read-outs stand apart in the source and are kept apart here.

Regarding “3-(1-oxo-4-(4-(4-(((R,E)-1^1,2^6,7-trimethyl-3-oxo-5^2,5^3-dihydro-1^1H,5^1H-11-oxa-4-aza-5 (2,1)-benzo[d]imidazole-2 (2,4)-pyridine-1 (4,5)-pyrazolecyclododecan-5^6-yl)methyl)piperazin-1-yl)butyl)isoindol-2-yl)piperidine-2,6-dione [Compound D1]”, the IC50 in experiment [1] worked out at 2.12 nM; in experiment [2], 2.7 nM.
With “3-(1-oxo-4-(5-(4-(((R,E)-1^1,2^6,7-trimethyl-3-oxo-5^2,5^3-dihydro-1^1H,5^1H-11-oxa-4-aza-5 (2,1)-benzo[d]imidazole-2 (2,4)-pyridine-1 (4,5)-pyrazolecyclododecan-5^6-yl)methyl)piperazin-1-yl) pent-1-yn-1-yl)isoindol-2-yl)piperidine-2,6-dione [Compound D2]”, the IC50 in experiment [1] turned out to be 3.96 nM; in experiment [2] it was 3.89 nM.
In the case of `Cc1cc2cc(n1)-c1cnn(C)c1OCCC[C@@H](C)CN1/C(=N/C2=O)Nc2ccc(CN3CCN(CCCCCc4cccc5c4CN(C4CCC(=O)NC4=O)C5=O)CC3)cc21` (stereo partly drawn) [Compound D3, 3-(1-oxo-4-(5-(4-(((R,E)-1^1,2^6,7-trimethyl-3-oxo-5^2,5^3-dihydro-1^1H,5^1H-11-oxa-4-aza-5 (2,1)-benzo[d]imidazole-2 (2,4)-pyridine-1 (4,5)-pyrazolecyclododecan-5^6-yl)methyl)piperazin-1-yl)pentyl)isoindol-2-yl)piperidine-2,6-dione], the IC50 amounted to 2.88 nM in experiment [1] (Mus musculus, BaF3); 3.13 nM in experiment [2] (Ba/F3 EGFR-Del19/T790M/C797S); 1.09 nM on EGFR^L858R/T790M/C797S [3]. Moreover, the “effect on EGFR^L858R/T790M/C797S protein level (in words)” value at EGFR^L858R/T790M/C797S [4] (6 h, dose-dependent) is recorded as “significantly reduces”. In addition, at EGFR^L858R/T790M/C797S [4] (6 h treatment, 0.01 nM to 1000 nM, read-out: DC50 (EGFR^L858R/T790M/C797S protein level)), the DC50 came out at 9.28 nM.
In the case of `Cc1cc2cc(n1)-c1cnn(C)c1OCCC[C@@H](C)CN1/C(=N/C2=O)Cc2ccc(CN3CCN(CCCCCCc4cccc5c4CN(C4CCC(=O)NC4=O)C5=O)CC3)cc21` (stereo partly drawn) [Compound D4, 3-(1-oxo-4-(6-(4-(((R,E)-1^1,2^6,7-trimethyl-3-oxo-5^2,5^3-dihydro-1^1H,5^1H-11-oxa-4-aza-5 (2,1)-benzo[d]imidazole-2 (2,4)-pyridine-1 (4,5)-pyrazolecyclododecan-5^6-yl)methyl)piperazin-1-yl)hexyl)isoindol-2-yl)piperidine-2,6-dione], the results for the IC50 (in experiment [1]; in experiment [2]; against EGFR^L858R/T790M/C797S [3]) were 4.39 nM, 4.41 nM and 10.1 nM, respectively.
For the compound `Cc1cc2cc(n1)-c1cnn(C)c1OCCC[C@@H](C)CN1/C(=N/C2=O)Nc2ccc(CN3CCN(CCCCCCCc4cccc5c4CN(C4CCC(=O)NC4=O)C5=O)CC3)cc21` (stereo partly drawn) [Compound D5, 3-(1-oxo-4-(7-(4-(((R,E)-1^1,2^6,7-trimethyl-3-oxo-5^2,5^3-dihydro-1^1H,5^1H-11-oxa-4-aza-5 (2,1)-benzo[d]imidazole-2 (2,4)-pyridine-1 (4,5)-pyrazolecyclododecan-5^6-yl)methyl)piperazin-1-yl)heptyl)isoindol-2-yl)piperidine-2,6-dione], the IC50 turned out to be 11.6 nM in experiment [1] (Mus musculus, BaF3); 10.7 nM in experiment [2] (Ba/F3 EGFR-Del19/T790M/C797S); 35.9 nM at EGFR^L858R/T790M/C797S [3].
In the case of `C=CC(=O)Nc1cc(Nc2nccc(-c3cn(C)c4ccccc34)n2)c(OC)cc1N(C)CCN(C)C` [Osimertinib, reference compound], the IC50 was greater than 1000 nM in experiment [1] (Mus musculus, BaF3) and greater than 1000 nM in experiment [2] (Ba/F3 EGFR-Del19/T790M/C797S).

Values taken from patent US12410192B2, “Compound for inhibiting and inducing degradation of EGFR kinase” (BEIJING TIDE PHARMACEUTICAL CO., LTD., priority 2019, dated 2025).
